Measured values: patent US12146155B2, “Method for constructing human pluripotent stem cell-derived liver organoid having enhanced drug metabolic potential and liver organoid constructed by same method” (KOREA RESEARCH INSTITUTE OF CHEMICAL TECHNOLOGY, priority 2021, dated 2024)
Blank lines part the entries; values can stand above or below the compound they belong to.

Columns and labels:
[1] = system: hiPSC-derived cardiomyocytes (hiPSC-CMs) co-cultured with FC-treated S(−)-HO
Experimental: (§1) Specifically, the electrical activity of Cardiosight®-S (NEXEL Co., South Korea), the hiPSC-CM, was measured using an MEA system (Axion BioSystems, Maestro, US) at 37° C. and perfused with 5% CO2, 20% O2, and 75% N2. The hiPSC-CMs were first seeded in a 12-well MEA plate at the density of 4×10^4 cells per well and maintained for 7 days in a cardiomyocyte culture medium provided by NEXEL Co. to stabilize with half-mid changes performed every 2 days. One week later, the culture medium was replaced with a liver organoid differentiation medium (DM). Transwell inserts (Corning) were then placed in each well, and FC-treated S(−)-HO was seeded in the inserts, followed by culture for 3 days. On the day of compound application, the culture medium was completely removed from the wells and inserts and fresh medium was added to ensure the correct volume per well (2 m ? /well total). Cells were allowed to equilibrate for 4 hours, and online parameters were monitored to ensure a stable baseline for at least 40 minutes. The cells were exposed to cyclophosphamide at a single dose per well. After application of the drug or control (0.1% DMSO), field potentials were measured every 5 minutes for 30 seconds for 72 hours. The field potential signals were recorded and analyzed using Axion BioSystems' integrated studio (AxIS) software to measure the beating frequency and field potential duration. […]

HepG2 = assay: Fimasartan metabolite formation (LC-MS/MS); format: in vitro ADME, human; conditions: 50 μM FMS for 24 hours
Experimental: 70 μ ? of medium was collected at 3, 6, 12 and 24 hours, respectively, and the reaction was quenched by adding 70 μ ? of ice-cold ACN containing 100 nM BR-A-563 as an internal standard. The samples were centrifuged at 16,000 g for 10 minutes at 4° C. and the supernatant was applied to liquid chromatography-tandem mass spectrometry (LC-MS/MS). Data were normalized to protein concentration.

HepG2 and 2D HLC = assay: Acetaminophen metabolite formation (LC-MS/MS); format: in vitro ADME, human; conditions: 10 mM APAP
Experimental: Specifically, to measure the metabolites of APAP, reactions were performed in PHH, D-HO, S-HO, HepG2, and 2D HLC treated with 10 mM APAP for 24 hours at 37° C. in 5% CO2. APAP was treated to a final volume of 0.7 m ? per well in each 24-well culture plate. 70 μ ? of medium was collected at 3, 6, 12 and 24 hours, respectively, and the reaction was quenched by adding 70 μ ? of ice-cold ACN containing 100 nM BR-A-563 as an internal standard. The samples were centrifuged at 16,000 g for 10 minutes at 4° C. and the supernatant was applied to liquid chromatography-tandem mass spectrometry (LC-MS/MS). Data were normalized to protein concentration.

MRP2 = target: T1, MRP2 (Homo sapiens, UniProt Q92887); assay: CDFDA staining of liver organoids with or without transporter inhibitor; format: cell-based; conditions: 2 mM probenecid for 3 hours; D(−)-HO and S(−)-HO
T1 construct: endogenous in cells; host or cells: human iPSC-derived liver organoids (D(−)-HO, S(−)-HO)
T1 sequence (Q92887 whole entry): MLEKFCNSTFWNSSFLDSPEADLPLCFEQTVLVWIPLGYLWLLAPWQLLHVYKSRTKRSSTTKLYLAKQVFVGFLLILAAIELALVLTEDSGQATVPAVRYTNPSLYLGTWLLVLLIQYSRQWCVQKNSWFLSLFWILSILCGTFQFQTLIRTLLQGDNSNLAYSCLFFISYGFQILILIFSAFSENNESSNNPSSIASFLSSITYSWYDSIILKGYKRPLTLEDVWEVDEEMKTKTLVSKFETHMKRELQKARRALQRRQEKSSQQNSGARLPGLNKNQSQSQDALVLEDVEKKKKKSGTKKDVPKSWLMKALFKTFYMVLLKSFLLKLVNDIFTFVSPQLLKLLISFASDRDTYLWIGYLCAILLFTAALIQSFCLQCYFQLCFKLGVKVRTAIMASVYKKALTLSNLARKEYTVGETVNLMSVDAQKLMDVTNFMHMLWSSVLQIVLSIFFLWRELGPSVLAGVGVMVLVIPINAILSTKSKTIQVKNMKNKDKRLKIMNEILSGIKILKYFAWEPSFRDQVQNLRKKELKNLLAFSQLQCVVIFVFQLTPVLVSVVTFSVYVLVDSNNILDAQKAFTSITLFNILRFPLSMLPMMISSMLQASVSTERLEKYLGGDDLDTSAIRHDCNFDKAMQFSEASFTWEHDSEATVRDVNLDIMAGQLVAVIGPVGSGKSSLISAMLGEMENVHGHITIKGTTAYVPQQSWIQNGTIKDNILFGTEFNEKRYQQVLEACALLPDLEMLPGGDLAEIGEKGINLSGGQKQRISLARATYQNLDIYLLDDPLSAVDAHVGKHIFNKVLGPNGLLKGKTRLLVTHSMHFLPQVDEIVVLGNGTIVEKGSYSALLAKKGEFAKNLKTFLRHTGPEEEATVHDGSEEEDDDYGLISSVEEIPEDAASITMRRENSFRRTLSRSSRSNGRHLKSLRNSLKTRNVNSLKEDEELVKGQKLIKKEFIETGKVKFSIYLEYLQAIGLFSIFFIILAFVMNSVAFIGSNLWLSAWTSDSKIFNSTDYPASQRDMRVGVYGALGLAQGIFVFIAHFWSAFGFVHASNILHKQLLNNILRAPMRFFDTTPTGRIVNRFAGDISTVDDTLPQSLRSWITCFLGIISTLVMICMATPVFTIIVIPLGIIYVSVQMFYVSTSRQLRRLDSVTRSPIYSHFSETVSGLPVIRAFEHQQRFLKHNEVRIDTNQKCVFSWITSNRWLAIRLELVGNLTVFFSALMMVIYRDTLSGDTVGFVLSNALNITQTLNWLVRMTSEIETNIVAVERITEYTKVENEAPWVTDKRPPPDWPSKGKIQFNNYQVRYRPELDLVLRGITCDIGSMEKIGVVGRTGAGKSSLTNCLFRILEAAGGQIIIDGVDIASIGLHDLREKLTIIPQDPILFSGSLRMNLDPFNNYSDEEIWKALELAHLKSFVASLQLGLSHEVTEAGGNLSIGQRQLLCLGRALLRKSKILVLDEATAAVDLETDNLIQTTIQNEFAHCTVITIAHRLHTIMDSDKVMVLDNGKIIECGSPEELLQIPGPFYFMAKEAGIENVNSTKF
Experimental: Specifically, the liver organoids were recovered on Matrigel and washed three times with DPBS. For CDFDA (5(6)-carboxy-2′,7′-dichlorofluorescein diacetate) staining, the liver organoids treated with or without 2 mM probenecid for 3 hours were stained with 10 μM CDFDA (Sigma-Aldrich) for 15 minutes at 37° C., 5% CO2. […] All samples were washed three times with DPBS, stained with Hoechst 33342, and observed under an Olympus FV3000 confocal microscope.

[2] = system: hiPSC-CM not cultured with liver organoids; assay: MEA electrophysiology of hiPSC-CMs without liver organoids; format: cell-based, human
Experimental: as §1

SMILES: O=P1(N(CCCl)CCCl)NCCCO1 (stereo not drawn) [CP, Cyclophosphamide]
field potential duration corrected by beating frequency (FPDcF) ([1]; 250 μM, after 24 and 72 hours): increased
beating rate ([1]; 250 and 500 μM for 24 and 72 hours, compared to hiPSC-CM alone): significantly reduced

production of BR-A-535, a 3-step metabolite of FMS by CYP3A4 (HepG2): not observed
SMILES: CCCCc1nc(C)c(CC(=S)N(C)C)c(=O)n1Cc1ccc(-c2ccccc2-c2nnn[nH]2)cc1 [FMS, Fimasartan]

APAP-GSH amount of metabolites (HepG2 and 2D HLC): no metabolites were detected
SMILES: CC(=O)Nc1ccc(O)cc1 [acetaminophen, Acetaminophen]

SMILES: CCCN(CCC)S(=O)(=O)c1ccc(C(=O)O)cc1 [probenecid]
MRP2-specific fluorescence (CDFDA) when transporter blocked (MRP2): accumulated in the lumen of the liver organoids

time to spontaneous beating cessation after addition [2]: ≤ 30 min
SMILES: CC(C)(C)c1ccc(C(O)CCCN2CCC(C(O)(c3ccccc3)c3ccccc3)CC2)cc1 (stereo not drawn) [terfenadine, Terfenadine]
